# Tests used:
# CCRF-CEM = assay: NCI60 one-dose screen (10 μM), Leukemia; format: cell-based; conditions: Homo sapiens, read-out: Growth percent rate
# HL-60(TB) = assay: NCI60 one-dose screen (10 μM), Leukemia; format: cell-based; conditions: Homo sapiens, HL-60, read-out: Growth percent rate
# K-562 = assay: NCI60 one-dose screen (10 μM), Leukemia; format: cell-based; conditions: Homo sapiens, K562, read-out: Growth percent rate
# MOLT-4 = assay: NCI60 one-dose screen (10 μM), Leukemia; format: cell-based, human; conditions: Homo sapiens, MOLT-4, read-out: Growth percent rate
# RPMI-8226 = assay: NCI60 one-dose screen (10 μM), Leukemia; format: cell-based; conditions: Homo sapiens, RPMI-8226, read-out: Growth percent rate
# A549/ATCC = assay: NCI60 one-dose screen (10 μM), Non-small Cell Lung Cancer; format: cell-based; conditions: Homo sapiens, A549, read-out: Growth percent rate
# EKVX = assay: as above; format: cell-based; conditions: Homo sapiens, read-out: Growth percent rate
# HOP-62 = assay: as above; format: cell-based; conditions: Homo sapiens, HOP-62, read-out: Growth percent rate
# NCI-H23 = assay: as above; format: cell-based; conditions: Homo sapiens, NCI-H23, read-out: Growth percent rate
# NCI-H322M = assay: as above; format: cell-based; conditions: Homo sapiens, read-out: Growth percent rate
# NCI-H460 = assay: as above; format: cell-based; conditions: Homo sapiens, NCI-H460, read-out: Growth percent rate
# NCI-H522 = assay: as above; format: cell-based; conditions: Homo sapiens, NCI-H522, read-out: Growth percent rate
# COLO 205 = assay: NCI60 one-dose screen (10 μM), Colon Cancer; format: cell-based, human; conditions: Homo sapiens, COLO 205, read-out: Growth percent rate
# HCC-2998 = assay: NCI60 one-dose screen (10 μM), Colon Cancer; format: cell-based; conditions: Homo sapiens, HCC 2998, read-out: Growth percent rate
# HCT-116 = assay: NCI60 one-dose screen (10 μM), Colon Cancer; format: cell-based; conditions: Homo sapiens, HCT-116, read-out: Growth percent rate
# HCT-15 = assay: NCI60 one-dose screen (10 μM), Colon Cancer; format: cell-based; conditions: Homo sapiens, HCT-15, read-out: Growth percent rate
# HT29 = assay: NCI60 one-dose screen (10 μM), Colon Cancer; format: cell-based; conditions: Homo sapiens, HT-29, read-out: Growth percent rate
# KM12 = assay: NCI60 one-dose screen (10 μM), Colon Cancer; format: cell-based, human; conditions: Homo sapiens, KM12, read-out: Growth percent rate
# SW-620 = assay: NCI60 one-dose screen (10 μM), Colon Cancer; format: cell-based; conditions: Homo sapiens, SW-620, read-out: Growth percent rate
# SF-295 = assay: NCI60 one-dose screen (10 μM), CNS Cancer; format: cell-based; conditions: Homo sapiens, SF-295, read-out: Growth percent rate
# SF-539 = assay: NCI60 one-dose screen (10 μM), CNS Cancer; format: cell-based, human; conditions: Homo sapiens, SF-539, read-out: Growth percent rate
# SNB-19 = assay: NCI60 one-dose screen (10 μM), CNS Cancer; format: cell-based; conditions: Homo sapiens, SNB-19, read-out: Growth percent rate
# SNB-75 = assay: NCI60 one-dose screen (10 μM), CNS Cancer; format: cell-based, human; conditions: Homo sapiens, SNB-75, read-out: Growth percent rate
# U251 = assay: NCI60 one-dose screen (10 μM), CNS Cancer; format: cell-based; conditions: Homo sapiens, U-251, read-out: Growth percent rate
# MALME-3M = assay: NCI60 one-dose screen (10 μM), Melanoma; format: cell-based; conditions: Homo sapiens, Malme-3M, read-out: Growth percent rate
# M14 = assay: NCI60 one-dose screen (10 μM), Melanoma; format: cell-based; conditions: Homo sapiens, M14, read-out: Growth percent rate
# MDA-MB-435 = assay: NCI60 one-dose screen (10 μM), Melanoma; format: cell-based; conditions: Homo sapiens, MDA-MB-435, read-out: Growth percent rate
# SK-MEL-2 = assay: NCI60 one-dose screen (10 μM), Melanoma; format: cell-based; conditions: Homo sapiens, SK-MEL-2, read-out: Growth percent rate
# SK-MEL-28 = assay: NCI60 one-dose screen (10 μM), Melanoma; format: cell-based; conditions: Homo sapiens, SK-MEL-28, read-out: Growth percent rate
# SK-MEL-5 = assay: NCI60 one-dose screen (10 μM), Melanoma; format: cell-based, human; conditions: Homo sapiens, SK-MEL-5, read-out: Growth percent rate
# UACC-257 = assay: NCI60 one-dose screen (10 μM), Melanoma; format: cell-based; conditions: Homo sapiens, UACC-257, read-out: Growth percent rate
# IGROV1 = assay: NCI60 one-dose screen (10 μM), Ovarian Cancer; format: cell-based; conditions: Homo sapiens, IGROV-1, read-out: Growth percent rate
# OVCAR-3 = assay: NCI60 one-dose screen (10 μM), Ovarian Cancer; format: cell-based; conditions: Homo sapiens, OVCAR-3, read-out: Growth percent rate
# OVCAR-8 = assay: NCI60 one-dose screen (10 μM), Ovarian Cancer; format: cell-based; conditions: Homo sapiens, OVCAR-8, read-out: Growth percent rate
# 786–0 = assay: NCI60 one-dose screen (10 μM), Renal Cancer; format: cell-based; conditions: Homo sapiens, 786-0, read-out: Growth percent rate
# A498 = assay: NCI60 one-dose screen (10 μM), Renal Cancer; format: cell-based; conditions: Homo sapiens, A498, read-out: Growth percent rate
# ACHN = assay: NCI60 one-dose screen (10 μM), Renal Cancer; format: cell-based; conditions: Homo sapiens, read-out: Growth percent rate
# CAKI-1 = assay: NCI60 one-dose screen (10 μM), Renal Cancer; format: cell-based; conditions: Homo sapiens, CAKI-1, read-out: Growth percent rate
# SN12C = assay: NCI60 one-dose screen (10 μM), Renal Cancer; format: cell-based; conditions: Homo sapiens, read-out: Growth percent rate
# TK-10 = assay: NCI60 one-dose screen (10 μM), Renal Cancer; format: cell-based; conditions: Homo sapiens, TK-10, read-out: Growth percent rate
# MCF7 = assay: NCI60 one-dose screen (10 μM), Breast Cancer; format: cell-based; conditions: Homo sapiens, MCF7, read-out: Growth percent rate
# HS 578T = assay: NCI60 one-dose screen (10 μM), Breast Cancer; format: cell-based; conditions: Homo sapiens, Hs-578T, read-out: Growth percent rate
structure (smiles),measurement,setting,value
"CCC12C=CCN3CCC4(c5ccc(OC)cc5N(C)C4C(O)(C(=O)OC)C1O)C32 (stereo not drawn) [Compound 13, 17-desacetylvindoline]",activity at 10 µM,CCRF-CEM,103%
same,activity at 10 µM,HL-60(TB),119%
same,activity at 10 µM,K-562,101%
same,activity at 10 µM,MOLT-4,100%
same,activity at 10 µM,RPMI-8226,99.4%
same,activity at 10 µM,A549/ATCC,103%
same,activity at 10 µM,EKVX,98.9%
same,activity at 10 µM,HOP-62,102%
same,activity at 10 µM,NCI-H23,93%
same,activity at 10 µM,NCI-H322M,92.8%
same,activity at 10 µM,NCI-H460,106%
same,activity at 10 µM,NCI-H522,94%
same,activity at 10 µM,COLO 205,118%
same,activity at 10 µM,HCC-2998,96.8%
same,activity at 10 µM,HCT-116,99.2%
same,activity at 10 µM,HCT-15,99.2%
same,activity at 10 µM,HT29,102%
same,activity at 10 µM,KM12,103%
same,activity at 10 µM,SW-620,99.4%
same,activity at 10 µM,SF-295,101%
same,activity at 10 µM,SF-539,96.6%
same,activity at 10 µM,SNB-19,97.4%
same,activity at 10 µM,SNB-75,84.9%
same,activity at 10 µM,U251,99.3%
same,activity at 10 µM,MALME-3M,90.8%
same,activity at 10 µM,M14,94.7%
same,activity at 10 µM,MDA-MB-435,89%
same,activity at 10 µM,SK-MEL-2,116%
same,activity at 10 µM,SK-MEL-28,92.1%
same,activity at 10 µM,SK-MEL-5,90.5%
same,activity at 10 µM,UACC-257,96.7%
same,activity at 10 µM,IGROV1,95.8%
same,activity at 10 µM,OVCAR-3,112%
same,activity at 10 µM,OVCAR-8,103%
same,activity at 10 µM,786–0,97.7%
same,activity at 10 µM,A498,104%
same,activity at 10 µM,ACHN,96%
same,activity at 10 µM,CAKI-1,98.2%
same,activity at 10 µM,SN12C,99%
same,activity at 10 µM,TK-10,93.3%
same,activity at 10 µM,MCF7,95.7%
same,activity at 10 µM,HS 578T,100%
CC[C@]12C=CCN3CC[C@@]4(c5ccc(OC)cc5N(C)[C@H]4[C@@](O)(C(=O)OC)[C@@H]1OC(=O)CCCN1CCN(C(c4ccc(F)cc4)c4ccc(F)cc4)CC1)[C@@H]32 [Compound 25],activity at 10 µM,CCRF-CEM,-29.5%
same,activity at 10 µM,HL-60(TB),-56.2%
same,activity at 10 µM,K-562,-1.7%
same,activity at 10 µM,MOLT-4,-31.9%
same,activity at 10 µM,RPMI-8226,-50.1%
same,activity at 10 µM,A549/ATCC,-65.4%
same,activity at 10 µM,EKVX,-89.8%
same,activity at 10 µM,HOP-62,-77.2%
same,activity at 10 µM,NCI-H23,-92.7%
same,activity at 10 µM,NCI-H322M,-71.7%
same,activity at 10 µM,NCI-H460,-70.4%
same,activity at 10 µM,NCI-H522,-88.2%
same,activity at 10 µM,COLO 205,-78.5%
same,activity at 10 µM,HCC-2998,-97.2%
same,activity at 10 µM,HCT-116,-98.6%
same,activity at 10 µM,HCT-15,-96.6%
same,activity at 10 µM,HT29,-83.9%
same,activity at 10 µM,KM12,-96.9%
same,activity at 10 µM,SW-620,-78.5%
same,activity at 10 µM,SF-295,-91%
same,activity at 10 µM,SF-539,-98.5%
same,activity at 10 µM,SNB-19,-93.6%
same,activity at 10 µM,SNB-75,-86.4%
same,activity at 10 µM,U251,-79%
same,activity at 10 µM,MALME-3M,-91%
same,activity at 10 µM,M14,-94.8%
same,activity at 10 µM,MDA-MB-435,-78.7%
same,activity at 10 µM,SK-MEL-2,-89.5%
same,activity at 10 µM,SK-MEL-28,-96.5%
same,activity at 10 µM,SK-MEL-5,-99.6%
same,activity at 10 µM,UACC-257,-78.2%
same,activity at 10 µM,IGROV1,-77%
same,activity at 10 µM,OVCAR-3,-83%
same,activity at 10 µM,OVCAR-8,-69.3%
same,activity at 10 µM,786–0,-96.4%
same,activity at 10 µM,A498,-97.2%
same,activity at 10 µM,ACHN,-69.4%
same,activity at 10 µM,CAKI-1,-86.2%
same,activity at 10 µM,SN12C,-95%
same,activity at 10 µM,TK-10,-90.4%
same,activity at 10 µM,MCF7,-88.2%
same,activity at 10 µM,HS 578T,-60%
"CCC12C=CCN3CC[C@@]4(c5ccc(OC)cc5N(C)[C@H]4[C@@](O)(C(=O)OC)[C@@H]1OC(C)=O)[C@@H]32 (stereo partly drawn) [Compound 1, vindoline]",activity at 10 µM,CCRF-CEM,102%
same,activity at 10 µM,HL-60(TB),96.7%
same,activity at 10 µM,K-562,89.3%
same,activity at 10 µM,MOLT-4,92.7%
same,activity at 10 µM,RPMI-8226,105%
same,activity at 10 µM,A549/ATCC,101%
same,activity at 10 µM,EKVX,92%
same,activity at 10 µM,HOP-62,99%
same,activity at 10 µM,NCI-H23,95.3%
same,activity at 10 µM,NCI-H322M,109%
same,activity at 10 µM,NCI-H460,120%
same,activity at 10 µM,NCI-H522,99.7%
same,activity at 10 µM,COLO 205,111%
same,activity at 10 µM,HCC-2998,101%
same,activity at 10 µM,HCT-116,116%
same,activity at 10 µM,HCT-15,103%
same,activity at 10 µM,HT29,108%
same,activity at 10 µM,KM12,108%
same,activity at 10 µM,SW-620,121%
same,activity at 10 µM,SF-295,103%
same,activity at 10 µM,SF-539,116%
same,activity at 10 µM,SNB-19,102%
same,activity at 10 µM,SNB-75,119%
same,activity at 10 µM,U251,95.9%
same,activity at 10 µM,MALME-3M,147%
same,activity at 10 µM,M14,105%
same,activity at 10 µM,MDA-MB-435,104%
same,activity at 10 µM,SK-MEL-2,106%
same,activity at 10 µM,SK-MEL-28,134%
same,activity at 10 µM,SK-MEL-5,89.2%
same,activity at 10 µM,UACC-257,95.8%
same,activity at 10 µM,IGROV1,145%
same,activity at 10 µM,OVCAR-3,127%
same,activity at 10 µM,OVCAR-8,103%
same,activity at 10 µM,786–0,97.5%
same,activity at 10 µM,A498,137%
same,activity at 10 µM,ACHN,105%
same,activity at 10 µM,CAKI-1,105%
same,activity at 10 µM,SN12C,100%
same,activity at 10 µM,TK-10,97.5%
same,activity at 10 µM,MCF7,89.9%
same,activity at 10 µM,HS 578T,98%
